Assay results taken from patent publication US7871982B2, “Lincomycin derivatives and antimicrobial agents comprising the same as active ingredient” (Meiji Seika Kaisha, Ltd., priority 2005, dated 2011).
Converted amounts (≈) assume the structure as drawn.

Columns and labels:
Assay in all cases: Antimicrobial activity, MIC against pneumococci (agar dilution)
Type in all cases: cell-based
[1] = system: S. pneumoniae IP692; details: sensitivity disk agar-N+5% horse blood, inoculum 10^6 CFU/ml; for MIC: Streptococcus pneumoniae, read-out: minimal inhibitory concentration (MIC)
Experimental: (§1) For representative compounds among lincomycin derivatives according to the present invention, the minimal inhibitory concentration (MIC, μg/ml) against various pneumococci was measured according to the method described in CHEMOTHERAPY, vol. 16, No. 1, 99, 1968. Sensitivity disk agar-N+5% horse blood was used as the medium for the measurement. The amount of bacteria inoculated was 10^6 CFU/ml.

[2] = system: S. pneumoniae PRC0-91; details: inoculum 10^6 CFU/ml; for minimal inhibitory concentration (MIC): sensitivity disk agar-N+5% horse blood
Experimental: as §1

[3] = system: S. pneumoniae 225; details: sensitivity disk agar-N+5% horse blood, inoculum 10^6 CFU/ml; for MIC: Streptococcus pneumoniae, read-out: minimal inhibitory concentration (MIC)
Experimental: as §1

[4] = system: S. pneumoniae PRC-206; details: inoculum 10^6 CFU/ml; for minimal inhibitory concentration (MIC): sensitivity disk agar-N+5% horse blood; for MIC: Streptococcus pneumoniae, PRC206, sensitivity disk agar-N+5% horse blood, read-out: minimal inhibitory concentration (MIC)
Experimental: as §1

[5] = system: S. pneumoniae TH-96; details: inoculum 10^6 CFU/ml; for minimal inhibitory concentration (MIC): sensitivity disk agar-N+5% horse blood; for MIC: Streptococcus pneumoniae, TH96, sensitivity disk agar-N+5% horse blood, read-out: minimal inhibitory concentration (MIC)
Experimental: as §1

[6] = system: S. pneumoniae 1820; details: sensitivity disk agar-N+5% horse blood, inoculum 10^6 CFU/ml; for MIC: Streptococcus pneumoniae, read-out: minimal inhibitory concentration (MIC)
Experimental: as §1

[7] = system: S. pneumoniae TH-662; details: inoculum 10^6 CFU/ml; for minimal inhibitory concentration (MIC): sensitivity disk agar-N+5% horse blood; for MIC: Streptococcus pneumoniae, TH662, sensitivity disk agar-N+5% horse blood, read-out: minimal inhibitory concentration (MIC)
Experimental: as §1

[8] = system: S. pneumoniae 1913; details: sensitivity disk agar-N+5% horse blood, inoculum 10^6 CFU/ml; for MIC: Streptococcus pneumoniae, read-out: minimal inhibitory concentration (MIC)
Experimental: as §1

[9] = system: S. pneumoniae PRC-53; details: inoculum 10^6 CFU/ml; for minimal inhibitory concentration (MIC): sensitivity disk agar-N+5% horse blood; for MIC: Streptococcus pneumoniae, PRC53, sensitivity disk agar-N+5% horse blood, read-out: minimal inhibitory concentration (MIC)
Experimental: as §1

[10] = system: S. pneumoniae DPI Type[…]; details: for minimal inhibitory concentration (MIC): S. pneumoniae DPI Type[…], sensitivity disk agar-N+5% horse blood, inoculum 10^6 CFU/ml; for MIC: Streptococcus pneumoniae, read-out: minimal inhibitory concentration (MIC)
Experimental: as §1

SMILES	minimal inhibitory concentration (MIC) [1] [µg/mL]	minimal inhibitory concentration (MIC) [2] [µg/mL]	minimal inhibitory concentration (MIC) [3] [µg/mL]	minimal inhibitory concentration (MIC) [4] [µg/mL]	minimal inhibitory concentration (MIC) [5] [µg/mL]	minimal inhibitory concentration (MIC) [6] [µg/mL]	minimal inhibitory concentration (MIC) [7] [µg/mL]	minimal inhibitory concentration (MIC) [8] [µg/mL]	minimal inhibitory concentration (MIC) [9] [µg/mL]	minimal inhibitory concentration (MIC) [10] [µg/mL]	MIC [1] [µg/mL]	MIC [3] [µg/mL]	MIC [4] [µg/mL]	MIC [5] [µg/mL]	MIC [6] [µg/mL]	MIC [7] [µg/mL]	MIC [8] [µg/mL]	MIC [9] [µg/mL]	MIC [10] [µg/mL]	MIC ([2]; Streptococcus pneumoniae, PRC091, sensitivity disk agar-N+5% horse blood, read-out: minimal inhibitory concentration (MIC)) [µg/mL]
CCC[C@H]1CN[C@H](C(=O)N[C@@H]([C@H]2O[C@H](SC)[C@H](O)[C@@H](O)[C@H]2O)[C@H](C)Sc2nnc(-c3sccc3N)s2)C1 [Compound 304, 7-(5-(3-Aminothiophen-2-yl)-1,3,4-thiadiazol-2-ylthio)-1′-demethyl-7-deoxy-7-epilincomycin]	0.13 (≈ 0.22 µM)	2 (≈ 3.39 µM)	16 (≈ 27.1 µM)	4 (≈ 6.78 µM)	0.13 (≈ 0.22 µM)	4 (≈ 6.78 µM)	2 (≈ 3.39 µM)	0.13 (≈ 0.22 µM)	0.13 (≈ 0.22 µM)	0.13 (≈ 0.22 µM)										
CCC[C@@H]1C[C@@H](C(=O)N[C@@H]([C@H]2O[C@H](SC)[C@H](O)[C@@H](O)[C@H]2O)[C@H](C)Sc2ccc(NC(=O)CC)cn2)N(C)C1 [Compound 191, 7-Deoxy-7-epi-7-(5-(propionamido)pyridin-2-ylthio)-lincomycin]	0.015 (≈ 0.0263 µM)	2 (≈ 3.5 µM)	32 (≈ 56.1 µM)	8 (≈ 14 µM)	0.03 (≈ 0.0526 µM)	4 (≈ 7.01 µM)		0.015 (≈ 0.0263 µM)	0.03 (≈ 0.0526 µM)	0.015 (≈ 0.0263 µM)										
CCC[C@@H]1CCN[C@H](C(=O)N[C@@H]([C@H]2O[C@H](SC)[C@H](O)[C@@H](O)[C@H]2O)[C@H](C)Sc2ncc(C(=O)OCC)c(N)n2)C1 [Compound 364, Methyl 7-(4-amino-5-ethoxycarbonylpyrimidin-2-ylthio)-7-deoxy-7-epi-6-N-((2S,4R)-4-propyl)pipecoloyl-1-thio-α-lincosamide]	0.13 (≈ 0.221 µM)		4 (≈ 6.81 µM)	4 (≈ 6.81 µM)	0.06 (≈ 0.102 µM)	4 (≈ 6.81 µM)	2 (≈ 3.4 µM)	0.13 (≈ 0.221 µM)	0.03 (≈ 0.051 µM)	0.13 (≈ 0.221 µM)										
CCC[C@@H]1C[C@@H](C(=O)N[C@@H](C2OC(SC)C(O)C(O)C2O)[C@H](C)SCc2ccc(C(=O)N3CCCCC3)cc2)N(C)C1 (stereo partly drawn) [Compound 235, 7-Deoxy-7-epi-7-(4-(piperidino-carbonyl)benzylthio)lincomycin]											0.015 (≈ 0.024 µM)	32 (≈ 51.3 µM)	4 (≈ 6.41 µM)	0.03 (≈ 0.0481 µM)	8 (≈ 12.8 µM)	1 (≈ 1.6 µM)	0.03 (≈ 0.0481 µM)	0.03 (≈ 0.0481 µM)	0.015 (≈ 0.024 µM)	
CCC[C@@H]1C[C@@H](C(=O)N[C@H](C2OC(SC)C(O)C(O)C2O)[C@@H](C)Sc2ccc(-c3cccnc3[N+](=O)[O-])cc2)N(C)C1 (stereo partly drawn) [Compound 446, 7-Deoxy-7-epi-7-(4-(2-nitropyridin-3-yl)phenylthio)-lincomycin]											0.03 (≈ 0.0483 µM)	64 (≈ 103 µM)	8 (≈ 12.9 µM)	0.015 (≈ 0.0242 µM)	4 (≈ 6.44 µM)	2 (≈ 3.22 µM)	0.03 (≈ 0.0483 µM)	0.015 (≈ 0.0242 µM)	0.03 (≈ 0.0483 µM)	4 (≈ 6.44 µM)
CC[C@@H]1CCN(C)[C@H](C(=O)N[C@@H]([C@H]2O[C@H](SC)[C@H](O)[C@@H](O)[C@H]2O)[C@H](C)Sc2nnc(-c3ccc(F)cc3[N+](=O)[O-])s2)C1 [Compound 396, Methyl 7-deoxy-7-epi-7-(5-(4-fluoro-2-nitrophenyl)-1,3,4-thiadiazol-2-ylthio)-6-N-((2S,4R)-1-N-methyl-4-ethyl)pipecoloyl-1-thio-α-lincosamide]	0.008 (≈ 0.0124 µM)	4 (≈ 6.19 µM)	>128	64 (≈ 99.1 µM)	0.015 (≈ 0.0232 µM)	16 (≈ 24.8 µM)	8 (≈ 12.4 µM)	0.008 (≈ 0.0124 µM)	0.015 (≈ 0.0232 µM)	0.015 (≈ 0.0232 µM)										
CCCC1CC(C(=O)NC(C(C)Sc2ccc(N(C)C(=O)COC)cc2)C2OC(SC)C(O)C(O)C2O)N(C)C1 (stereo not drawn) [Compound 170, 7-Deoxy-7-epi-7-(4-(methoxy-N-methylacetamido)phenylthio)-lincomycin]	0.13 (≈ 0.217 µM)	8 (≈ 13.3 µM)	128 (≈ 213 µM)	16 (≈ 26.7 µM)	0.13 (≈ 0.217 µM)	8 (≈ 13.3 µM)	8 (≈ 13.3 µM)	0.13 (≈ 0.217 µM)	0.13 (≈ 0.217 µM)	0.13 (≈ 0.217 µM)										
CCCC1CC(C(=O)NC(C(C)Sc2nnc(NC(=O)COC)s2)C2OC(SC)C(O)C(O)C2O)N(C)C1 (stereo not drawn) [Compound 195, 7-Deoxy-7-epi-7-(5-(2-methoxyacetamido)-1,3,4-thiadiazol-2-ylthio)lincomycin]	0.03 (≈ 0.0505 µM)	8 (≈ 13.5 µM)	64 (≈ 108 µM)	64 (≈ 108 µM)	0.06 (≈ 0.101 µM)	16 (≈ 26.9 µM)	8 (≈ 13.5 µM)	0.13 (≈ 0.219 µM)	0.06 (≈ 0.101 µM)	0.06 (≈ 0.101 µM)										
CCC[C@@H]1C[C@@H](C(=O)N[C@@H]([C@H]2O[C@H](SC)[C@H](O)[C@@H](O)[C@H]2O)[C@H](C)Sc2ccc(C(=O)N3CCCC3)cc2)N(C)C1 [Compound 228, 7-Deoxy-7-epi-7-(4-(pyrrolidino-carbonyl)phenylthio)lincomycin]	0.06 (≈ 0.101 µM)	2 (≈ 3.36 µM)	16 (≈ 26.9 µM)	4 (≈ 6.71 µM)		4 (≈ 6.71 µM)	2 (≈ 3.36 µM)	0.13 (≈ 0.218 µM)	0.06 (≈ 0.101 µM)	0.13 (≈ 0.218 µM)										
